Tests used:
S. pneumoniae D39V = experiment: fitness (endpoint OD595 vs no drug) (fraction); higher = more growth
Procedure, shortened: (§1)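 In 384-well plates at 37 °C, cultures began at OD595 0.01 in 30 µl, with 55 µl used for S. pneumoniae. OD595 readings every 30 min for 14 h were corrected by the first reading. Fitness divides the stationary-phase transition optical density by the robust mean of no-drug control wells. The result is capped at 1.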

S. aureus Newman = experiment: as above
Procedure, shortened: as §1
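Also: OD595 on entry to stationary phase over no-drug wells; at most 1.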

O=C(O)[C@H]1/C(=C/CO)O[C@@H]2CC(=O)N21 [Clavulanic acid] + CN[C@H](CC(C)C)C(=O)N[C@H]1C(=O)N[C@@H](CC(N)=O)C(=O)N[C@H]2C(=O)N[C@H]3C(=O)N[C@H](C(=O)N[C@H](C(=O)O)c4cc(O)cc(O)c4-c4cc3ccc4O)[C@H](O)c3ccc(c(Cl)c3)Oc3cc2cc(c3O[C@@H]2O[C@H](CO)[C@@H](O)[C@H](O)[C@H]2O[C@H]2C[C@](C)(N)[C@H](O)[C@H](C)O2)Oc2ccc(cc2Cl)[C@H]1O [Vancomycin]
fitness, S. pneumoniae D39V
Details | partner 0.03125 µg/mL | partner 0.0625 µg/mL | partner 0.125 µg/mL | partner 0.25 µg/mL | partner 0.5 µg/mL
first compound 0.5 µg/mL | 0.984 | 0.917 | 0.875 | 0.0377 | 0.0441
first compound 1 µg/mL | 0.907 | 0.889 | 0.868 | 0.189 | 0.179
first compound 2 µg/mL | 0.811 | 0.779 | 0.751 | 0.0611 | 0.078

fitness, S. aureus Newman, one replicate
Details | first compound 0.03125 µg/mL | first compound 0.0625 µg/mL | first compound 0.125 µg/mL
partner 0.1875 µg/mL | 0.974 | ≥ 1 | 0.936
partner 0.375 µg/mL | 0.975 | ≥ 1 | 0.923
partner 0.75 µg/mL | 0.974 | ≥ 1 | 0.981

CNC(C)C1CCC(N)C(OC2C(N)CC(N)C(OC3OCC(C)(O)C(NC)C3O)C2O)O1 (centres undefined) [Gentamicin] + CO[C@@]12[C@H](COC(N)=O)C3=C(C(=O)C(C)=C(N)C3=O)N1C[C@@H]1N[C@@H]12 [Mitomycin C]
fitness, main component drawn
Details | partner 0.001075 µg/mL | partner 0.002 µg/mL | partner 0.00215 µg/mL | partner 0.004 µg/mL | partner 0.0043 µg/mL | partner 0.008 µg/mL | partner 0.0156 µg/mL | partner 0.0312 µg/mL | partner 0.0625 µg/mL
S. aureus Newman, first compound 0.5 µg/mL | – | – | – | – | – | – | 0.762 | 0.667 | 0.558
S. aureus Newman, first compound 1 µg/mL | – | – | – | – | – | – | 0.797 | 0.698 | 0.601
S. aureus Newman, first compound 2 µg/mL | – | – | – | – | – | – | 0.808 | 0.732 | 0.585
S. pneumoniae D39V, first compound 2 µg/mL | 0.975 | 0.787 | 0.969 | 0.685 | 0.844 | 0.395 | – | – | –
S. pneumoniae D39V, first compound 4 µg/mL | 0.94 | 0.729 | 0.915 | 0.602 | 0.807 | 0.369 | – | – | –
S. pneumoniae D39V, first compound 8 µg/mL | 0.946 | 0.715 | 0.929 | 0.608 | 0.827 | 0.346 | – | – | –

fitness, S. aureus Newman, one replicate, main component drawn
Details | first compound 0.375 µg/mL | first compound 0.75 µg/mL | first compound 1.5 µg/mL
partner 0.0156 µg/mL | 0.755 | 0.779 | 0.774
partner 0.0312 µg/mL | 0.762 | 0.725 | 0.707
partner 0.0625 µg/mL | 0.602 | 0.603 | 0.607

O=C(O)[C@H]1/C(=C/CO)O[C@@H]2CC(=O)N21 [Clavulanic acid] + Cn1nnc(-c2ccc(-c3ccc(N4C[C@H](CO)OC4=O)cc3F)cn2)n1 [Tedizolid]
fitness, S. pneumoniae D39V
Details | partner 0.03125 µg/mL | partner 0.0625 µg/mL | partner 0.125 µg/mL | partner 0.25 µg/mL | partner 0.5 µg/mL
first compound 0.5 µg/mL | 0.953 | 0.943 | 0.693 | 0.261 | 0.0809
first compound 1 µg/mL | 0.887 | 0.938 | 0.673 | 0.371 | 0.227
first compound 2 µg/mL | 0.855 | 0.901 | 0.581 | 0.262 | 0.0776

fitness, S. aureus Newman, one replicate
Details | first compound 0.03125 µg/mL | first compound 0.0625 µg/mL | first compound 0.125 µg/mL
partner 0.0625 µg/mL | 0.827 | 0.837 | 0.868
partner 0.125 µg/mL | 0.498 | 0.509 | 0.523
partner 0.25 µg/mL | 0.0634 | 0.0552 | 0.0639

— the supplement of paper PMC10627819
